Publication PMC3394403 (2011)

Target: P-glycoprotein (P-gp, ABCB1, MDR1) (Homo sapiens, UniProt P08183)
Assay: inhibition of […]-IAAP photoaffinity labeling of P-gp in crude membranes
Assay type: binding

P-glycoprotein (P-gp, ABCB1, MDR1), sequence (P08183 whole entry): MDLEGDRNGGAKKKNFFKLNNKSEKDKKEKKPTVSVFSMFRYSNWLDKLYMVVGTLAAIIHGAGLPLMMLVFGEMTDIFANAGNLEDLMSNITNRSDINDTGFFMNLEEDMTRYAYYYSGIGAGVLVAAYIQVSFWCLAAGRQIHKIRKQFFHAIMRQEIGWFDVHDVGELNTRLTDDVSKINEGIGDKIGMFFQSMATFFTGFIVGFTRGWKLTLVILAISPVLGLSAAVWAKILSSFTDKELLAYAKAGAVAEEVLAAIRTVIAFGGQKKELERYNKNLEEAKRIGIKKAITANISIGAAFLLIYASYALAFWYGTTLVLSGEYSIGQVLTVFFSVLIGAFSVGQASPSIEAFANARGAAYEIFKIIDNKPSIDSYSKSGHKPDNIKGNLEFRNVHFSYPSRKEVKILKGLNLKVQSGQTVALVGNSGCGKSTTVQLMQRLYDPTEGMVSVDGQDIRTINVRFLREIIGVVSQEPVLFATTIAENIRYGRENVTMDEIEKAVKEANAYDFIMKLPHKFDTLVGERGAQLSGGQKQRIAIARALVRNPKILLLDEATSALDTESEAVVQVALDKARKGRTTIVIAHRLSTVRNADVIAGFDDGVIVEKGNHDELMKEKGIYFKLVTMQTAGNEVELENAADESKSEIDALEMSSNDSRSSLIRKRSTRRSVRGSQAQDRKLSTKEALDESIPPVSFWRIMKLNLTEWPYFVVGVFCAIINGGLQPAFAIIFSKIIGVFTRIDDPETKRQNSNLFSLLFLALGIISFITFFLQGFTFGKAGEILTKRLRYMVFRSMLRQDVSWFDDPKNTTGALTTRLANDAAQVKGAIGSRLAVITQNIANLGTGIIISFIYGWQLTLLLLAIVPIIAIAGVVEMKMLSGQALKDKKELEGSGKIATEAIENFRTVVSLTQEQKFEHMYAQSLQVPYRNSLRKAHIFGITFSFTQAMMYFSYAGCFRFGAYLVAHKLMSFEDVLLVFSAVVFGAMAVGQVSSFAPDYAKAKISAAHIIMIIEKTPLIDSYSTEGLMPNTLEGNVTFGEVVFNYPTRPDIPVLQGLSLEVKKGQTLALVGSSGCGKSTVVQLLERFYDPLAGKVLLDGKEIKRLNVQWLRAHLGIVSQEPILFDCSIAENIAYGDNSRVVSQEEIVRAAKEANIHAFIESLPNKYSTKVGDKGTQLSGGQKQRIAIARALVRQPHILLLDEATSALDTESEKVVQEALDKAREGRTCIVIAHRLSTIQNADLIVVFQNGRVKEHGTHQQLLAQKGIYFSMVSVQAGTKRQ

`C=C(C)/C=C/C[C@@H](C)[C@H]1CC[C@@]2(C)[C@@H]3[C@@H](O)C=C4[C@@H](CC[C@H](O)C4(C)C)[C@]3(C=O)CC[C@]12C` [kuguacin J] gave an IC50 of 8.3 ± 5.4 µM.
